Several values for one entry are separate records, joined by “and”; a condition that tells them apart may be missing. Equal values may be shown once. Read-outs that look alike come from different tables or passages of the source.
How the values were obtained:
[1] = system: L. infantum-iRFP axenic amastigotes; test: Viability of L. infantum-iRFP axenic amastigotes (infrared fluorescence, 384-well); format: cell-based, Leishmania infantum; settings: for EC50: Leishmania infantum, 72 h incubation, mean ± SD; for concentrations producing a decrease in fluorescence emission: axenic amastigotes, from 24 h until 72 h
[2] = system: intramacrophage L. infantum-iRFP amastigotes; test: Viability of L. infantum-iRFP intramacrophage amastigotes in infected murine splenocytes (infrared fluorescence, 384-well); format: cell-based, Leishmania infantum; settings: for EC50: Leishmania infantum, Splenocyte, 72 h incubation, mean ± SD
[3] = system: L. infantum-iRFP axenic amastigotes; test: ROS production by axenic amastigotes (DCFH-DA, flow cytometry); format: cell-based, Leishmania infantum; settings: 3 h treatment, 0.04 μM fexinidazole, 0.28 μM pretomanid (EC50)
[4] = molecular target: L. infantum TryR (Leishmania infantum, UniProt A4HSF7); test: Trypanothione reductase enzymatic assay in parasite protein extracts; format: biochemical; settings: up to 100 μM (thioridazine at 100 μM); T[S]2 0.075 mM, NADPH 0.20 mM
Chain of L. infantum TryR (A4HSF7 entry or part of it): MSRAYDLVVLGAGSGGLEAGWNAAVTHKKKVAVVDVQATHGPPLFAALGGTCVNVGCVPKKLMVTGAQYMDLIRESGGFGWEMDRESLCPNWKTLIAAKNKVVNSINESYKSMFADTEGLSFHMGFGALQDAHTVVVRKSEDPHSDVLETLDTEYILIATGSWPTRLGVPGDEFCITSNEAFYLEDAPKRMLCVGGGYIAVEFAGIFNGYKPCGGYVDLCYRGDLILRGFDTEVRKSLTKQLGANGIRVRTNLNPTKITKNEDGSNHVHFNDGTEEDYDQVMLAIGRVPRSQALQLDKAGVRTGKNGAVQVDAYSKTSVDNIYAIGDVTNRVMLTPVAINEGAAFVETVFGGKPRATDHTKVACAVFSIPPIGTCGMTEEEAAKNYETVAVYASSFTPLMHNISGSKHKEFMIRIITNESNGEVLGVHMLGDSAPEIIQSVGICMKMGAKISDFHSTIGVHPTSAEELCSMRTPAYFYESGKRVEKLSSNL

[5] = system: intracellular amastigotes of L donovani; settings: cited from earlier work
[6] = Cytotoxicity in HepG2 cells (alamarBlue); settings: human
[7] = Cytotoxicity in RAW 264.7 cells (alamarBlue); settings: mouse
[8] = CC50 HepG2 cells / EC50 axenic amastigotes
[9] = CC50 RAW 264.7 cells / EC50 axenic amastigotes
[10] = CC50 HepG2 cells / EC50 intramacrophage amastigotes
[11] = CC50 RAW 264.7 cells / EC50 intramacrophage amastigotes

## CSc1ccc(OCc2ncc([N+](=O)[O-])n2C)cc1 [Fexinidazole, 1-methyl-2-((p-(methylthio)-phenoxy)methyl)-5-nitroimidazole]
[1]; [8]
  SI1 (Selectivity Index): >5000.00
[1]; [9]
  SI2 (Selectivity Index): >5000.00
[1]
  EC50: 40 nM
  concentrations producing a decrease in fluorescence emission: above 0.125 μM
[2]; [10]
  SI1 (Selectivity Index): >151.52
[2]; [11]
  SI2 (Selectivity Index): >151.52
[2]
  EC50: 1320 ± 60 nM
[3]; 0.01% (v/v) H2O2
  percentage of the stressed population (+ROS): 58.4 ± 1.5% and 58.4%
  unstressed population (−ROS): 41.6%
[4]
  inhibitory effect on L. infantum TryR: neither fexinidazole nor pretomanid had any inhibitory effect
[5]
  potency against intracellular amastigotes: little activity
[6]; HepG2 cells
  CC50 at 72 h: > 200000 nM
[7]; RAW 264.7 macrophage cells
  CC50 at 72 h: > 200000 nM

## Cn1c([N+](=O)[O-])cnc1COc1ccc(S(C)(=O)=O)cc1 [sulfone]
[5]
  potency against intracellular amastigotes: potency similar to miltefosine

## OO [H2O2]
[3]; 0.01% (v/v) H2O2
  percentage of the stressed population (+ROS): 72.2%
  unstressed population (−ROS): 27.7%

## C[C@@H]1[C@H](O)[C@@H](C)/C=C/C=C/C=C/C=C/C=C/C=C/C=C/[C@H](O[C@@H]2O[C@H](C)[C@@H](O)[C@H](N)[C@@H]2O)C[C@@H]2O[C@](O)(C[C@@H](O)C[C@@H](O)[C@H](O)CC[C@@H](O)C[C@@H](O)CC(=O)O[C@H]1C)C[C@H](O)[C@H]2C(=O)O [Amp B]
[1]
  SI1 (Selectivity Index): 258.33
  SI2 (Selectivity Index): 24.82
  EC50: 270 ± 20 nM
[2]
  SI1 (Selectivity Index): 217.97
  SI2 (Selectivity Index): 20.94
  EC50: 320 ± 20 nM
[6]; HepG2 cells
  CC50 at 72 h: 69800 ± 13700 nM
[7]; RAW 264.7 macrophage cells
  CC50 at 72 h: 6700 ± 670 nM

## O=[N+]([O-])c1cn2c(n1)OC[C@@H](OCc1ccc(OC(F)(F)F)cc1)C2 [Pretomanid]
[1]; [8]
  SI1 (Selectivity Index): >714.29
[1]; [9]
  SI2 (Selectivity Index): >714.29
[1]
  EC50: 280 ± 20 nM
  concentrations producing a decrease in fluorescence emission: > 0.5 µM
[2]; [10]
  SI1 (Selectivity Index): >303.03
[2]; [11]
  SI2 (Selectivity Index): >303.03
[2]
  EC50: 660 ± 80 nM
[3]; 0.01% (v/v) H2O2
  percentage of the stressed population (+ROS): 39.8%
  unstressed population (−ROS): 59.9%
[3]; 0.01% (v/v) H2O2, listed as pretomanid
  percentage of the stressed population (+ROS): 39.8 ± 1.2%
[4]
  inhibitory effect on L. infantum TryR: neither fexinidazole nor pretomanid had any inhibitory effect
[6]
  CC50 at 72 h: > 200000 nM
[7]
  CC50 at 72 h: > 200000 nM

## CSc1ccc2c(c1)N(CCC1CCCCN1C)c1ccccc1S2 (stereo not drawn) [thioridazine]
[4]
  inhibitory effect on L. infantum TryR: completely inhibited the enzyme

## Cn1c([N+](=O)[O-])cnc1COc1ccc([S+](C)[O-])cc1 (stereo not drawn) [sulfoxide]
[5]
  potency against intracellular amastigotes: potency similar to miltefosine
